# Measurements from paper PMC13227277, “Targeting CIRP and IL-6R-mediated microglial inflammation to improve outcomes in intracerebral hemorrhage” (Journal of Advanced Research, 2025).
# Where two headings read alike, the source gives them in different places. No end group written: not given here.
# T1: recombinant human IL-6 receptor alpha (IL-6Rα) (human, UniProt P08887 20-365)
# T1 construct: Interleukin-6 receptor subunit alpha, human; UniProtKB P08887 is printed for the docking; also called rhIL-6Rα; rhIL-6R; source: recombinant
# T1 sequence (looked up): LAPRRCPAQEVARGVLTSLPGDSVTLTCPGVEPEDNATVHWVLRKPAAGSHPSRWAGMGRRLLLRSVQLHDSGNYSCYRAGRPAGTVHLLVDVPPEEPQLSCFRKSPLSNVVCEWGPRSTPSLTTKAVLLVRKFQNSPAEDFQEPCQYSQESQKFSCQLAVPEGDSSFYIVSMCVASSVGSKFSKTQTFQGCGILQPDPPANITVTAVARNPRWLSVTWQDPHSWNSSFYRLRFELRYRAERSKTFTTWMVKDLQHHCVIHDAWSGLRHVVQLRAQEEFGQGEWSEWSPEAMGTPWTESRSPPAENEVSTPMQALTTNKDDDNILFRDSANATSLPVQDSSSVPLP
# Key:
# [1] = in the brain following ICH, increased BBB permeability
# microglia [2] = assay: CCK-8 microglial viability; type: cell-based, mouse
# Text: (§1) Primary cortical neurons were isolated from embryonic day 16–18 (E16–E18) C57BL/6 mouse embryos as previously described, and cultured in Neurobasal medium supplemented with B27 and GlutaMAX (Gibco).Primary microglial cells were isolated from the cortices of neonatal (day 1) C57BL/6J mice. After disinfection with 75 % ethanol, the skin and skull were removed, and the brains were placed in ice-cold HBSS. The meninges were peeled off, the cortex was collected, and the hippocampus was discarded. Tissues were digested with 0.25 % trypsin at 37 °C for 12 min, centrifuged at 1200 rpm for 5 min, and resuspended in complete medium. The suspension was transferred to a T75 flask with 15 mL of complete medium. After 14 days, microglial cells were harvested by shaking the flask at 270–280 rpm for 30 min, and the supernatant was collected. To induce phenotyping, microglial cells were treated with LPS (100 ng/mL) and IFN-γ (20 ng/mL) for 48 h to induce the M1 phenotype, or IL-4 (20 ng/mL) for 48 h to induce the M2 phenotype. […]
# Microglia were exposed to 1, 10 100 μM concentrations of TCC or TC and PBS respectively for 24 h, and cell viability was measured. […] Cell viability was assessed using the Cell Counting Kit-8 (C0038, Beyotime) according to the manufacturer’s protocol. Absorbance at 450 nm was measured to determine cell viability.
# microglia [3] = assay: IL-6 release from CIRP-stimulated microglia, ELISA (TCC vs TC); type: cell-based, mouse; conditions: peptides 10 μM pre-treated 0.5 h, then rmCIRP 1 μg/mL 24 h, n = 3
# Protocol: To validate the effects of TCC and TC in vitro, microglial cells were pre-treated with the peptides (10 μM) for 0.5 h, followed by stimulation with recombinant mouse CIRP (rmCIRP, 1 μg/mL) for 24 h to establish an inflammation model.
# ELISA was used to quantify CIRP, MD2, IL-6, and TNF-α concentrations in blood and cerebrospinal fluid samples. Samples were processed and stored under standardized conditions to preserve protein integrity. Each target protein was measured using commercial ELISA kits, following the manufacturer’s instructions: Mouse CIRBP ELISA Kit (CSB-EL005440MO, CUSABIO), Mouse TNF-α ELISA Kit (EK282, Lianke Bio), Mouse IL-6 ELISA Kit (CSB-E04639m, CUSABIO), and Rat TNF-α ELISA Kit (EK382, Lianke Bio).
# After disinfection with 75 % ethanol, the skin and skull were removed, and the brains were placed in ice-cold HBSS. The meninges were peeled off, the cortex was collected, and the hippocampus was discarded. Tissues were digested with 0.25 % trypsin at 37 °C for 12 min, centrifuged at 1200 rpm for 5 min, and resuspended in complete medium. The suspension was transferred to a T75 flask with 15 mL of complete medium. After 14 days, microglial cells were harvested by shaking the flask at 270–280 rpm for 30 min, and the supernatant was collected. […] CIRP (1 μg/mL for 24 h) was added to the microglia, which were divided into PBS, CIRP, and CIRP + TCC groups. […]
# microglia [4] = assay: Microglial phagocytosis of CFSE-labeled RBCs; type: cell-based, mouse; conditions: rmCIRP 24 h, then CFSE-labeled erythrocytes
# Text: as §1, with “collected.” for “collected. To induce phenotyping, microglial cells were treated with LPS (100 ng/mL) and IFN-γ (20 ng/mL) for 48 h to induce the M1 phenotype, or IL-4 (20 ng/mL) for 48 h to induce the M2 phenotype.”
# The functional characteristics of microglial cells encompass not only the release of inflammatory cytokines but also their phagocytic activity. […] RBCs were labeled with either 0.5 μM or 5 μM CFSE, and immunofluorescence analysis determined that 5 μM CFSE was the optimal concentration for labeling (Fig. 7G). […]
# RBCs were isolated via density gradient centrifugation and labeled with CFSE before being stereotactically injected into the right striatum. […] Cell viability was assessed using a Fixable Viability Dye, and flow cytometric analysis was subsequently performed. […]
# [5] = molecular target: T1, recombinant human IL-6 receptor alpha …; assay: SPR; human IL-6Rα immobilised on a CM5 chip; human CIRBP or TCC as analyte; conditions: both partners purified
molecule,measurement,setting,value
YGRKKRRQRRRGRGFSRGGGDRGYGGKFERQKILDQRFFE [TCC],ability to cross the BBB,[1],effectively traverse the BBB
same,microglial viability,"microglia [2]; 10 μM, 24 h, CCK-8, n = 3",did not affect microglial viability
YGRKKRRQRRRRFESRSGGYGGSRD [TC],microglial viability,microglia [2],did not affect microglial viability
same,IL-6 release in culture supernatants,microglia [3],reduced IL-6 release
"rmCIRP: recombinant mouse CIRP (rmCIRP, 1 μg/mL) (protein, UniProt P60824 1-172, looked up) Cold-inducible RNA-binding …: MASDEGKLFVGGLSFDTNEQALEQVFSKYGQISEVVVVKDRETQRSRGFGFVTFENIDDAKDAMMAMNGKSVDGRQIRVDQAGKSSDNRSRGYRGGSAGGRGFFRGGRSRGRGFSRGGGDRGYGGGRFESRSGGYGGSRDYYASRSQGGSYGYRSSGGSYRDSYDSYATHNE","phagocytosis of RBCs, Cirbp^−/− vs WT microglia",microglia [4],greater capacity to phagocytize CFSE-labeled erythrocytes compared to WT microglia
"YGRKKRRQRRRGRGFSRGGGDRGYGGKFERQKILDQRFFE (also called TCC; source: synthetic peptide (Heifei KS-V Peptide Biotechnology, China)) [Tat-CIRP-CMA peptide]",Kd,[5],4.12 nM
